Measurements: patent US6406701B1, “Method and compositions for preventing or reducing HIV infection” (priority 2000, dated 2002)
Read-outs that look alike come from different tables or passages of the source.

Key:
[1] = test system: HIV; experiment: HIV infectivity of HUT78 cells by reverse transcriptase activity with or without 17-β-Estradiol; details: for RT Activity: estrogen 10^−7 M
Procedure: The sensitivity of CD4^+ T-HUT78 cells to HIV viral infection was determined by measuring the activity of reverse transcriptase in cells infected in the presence/absence of 17-β-Estradiol.

[2] = test system: breast carcinoma parental cells; experiment: LAPase release from primary breast carcinoma parental cells after estrogen stimulation (supernatants immunoprecipitated with MAb 7B6, fluorometric assay); format: cell-based, human
Procedure: (§1) Control cells were cultured in the absence of 17-β-Estradiol.). During the same period, LAPase in cell supernatants of control cells remain unchanged. In addition, LAPase activity was determined in supernatants of primary parental cell lines immunoprecipitated with anti-LAP-Protein G MAb 7B6 bound antibodies. […] In addition, there was no effect of estrogen incubation on LAPase activity in purified preparations of this enzyme alone.
Primary parental breast carcinoma cells obtained from human tumour biopsies were stimulated with 100 nM 17-β-Estradiol for 24 hours or cell media alone as a control. The cell media was RPMI 1640 medium+10% FCS+100 U/ml Penicillin+100 μg/ml Streptomycin. Cell supernatants were collected and then dialyzed against PBS in seamless cellulose tubing (MW 12,400) for 12 hours at 4° C. Es-LAPase was subsequently purified from the dialyzed cell supernatants using HPLC-gel permeation followed by DEAE-Cellulose and Bestatin-Sepharose affinity Chromatography. Briefly, the cell supernatant was applied to a Bio-Sil SEC-250 column (600×7.5 mm) previously equilibrated in a buffer containing 100 mM Sodium Phosphate buffer pH 6.8, 100 mM Na2SO4, 1 μM ZnCl2 and 10% glycerol. […]
Es-LAPase activities were determined fluorometrically using leucine-b-naphthylamide as the substrate [Kuramochi, H., et al. (1987) J. Antibiot., 40,1605-1611].

[3] = test system: HUT78 cells; experiment: Extracellular LAPase activity of HUT78 cells incubated with 17-β-Estradiol; format: cell-based
[4] = test system: LAPase; experiment: Estrogen incubation with purified LAPase preparations; format: biochemical; details: purified enzyme alone
Procedure: as §1

[5] = test system: HIV-1 (HTLVIIIb); format: cell-based; details: Day 5 post-infection; anti-estrogen 10^−7M combined with Mab 7B6 and thioredoxin matrices
Procedure: (§2) In the continued presence of each of the factors aforementioned, the cells were subsequently infected at a multiplicity of two infective viral particles per cell for two hours at 25° C. with constant agitation in a final volume of 1.0 ml. […] Syncytium formation was evaluated by light microscopy on days 3, 5 and 7.
Prior to infection, HUT78 cells were washed three times with PBS and the cell viability was determined. Infection was performed as described above. At indicated time intervals, 1.0 mil aliquots of were taken and p24 antigen quantified using a commercial ELISA kit (p24 Antigen Capture ELISA, ABBOTT Diagnostics Division), following the instructions of the manufacturer.

[6] = test system: HIV-1 (HTLVIIIb); format: cell-based; details: for Cytopathicity / Proviral Load: anti-estrogen 10^−7M combined with Mab 7B6 and thioredoxin matrices
Procedure: as §2

[7] = test system: es-LAPase; experiment: es-LAPase enzyme kinetics and inhibition (l-leucine-β-naphthylamide, 330 nm); format: biochemical, human; details: for es-LAPase reaction rate versus control es-LAPase (FIG. 3): 167 μM Bestatin, 167 μM reduced glutathione, 17 μM reduced thioredoxin; for mode of es-LAPase inhibition: from Vmax, Km, Ki of Table 4
Procedure: The kinetic assays were performed using a Spectronic Genesys 5 spectrophotometer from Milton Roy (Rochester, N.Y.). Absorbance was recorded every sixty seconds, over a period of 30 min. Enzyme kinetic assays were performed using 8.0×10^−2 U of es-LAPase in a final reaction volume of 600 μl and triplicate samples. […] A corresponding blank without es-LAPase was used as baseline. Both of the cuvettes were transferred to the spectrophotometer where the 1-leucine-β-naphthylamide solution was added last, marking time zero of the reaction.

[8] = test system: HIV; details: Tamoxifen concentrations of 10^−6M or higher; cited from earlier work
[9] = es-LAPase with 167 μM inhibitor

Question: Which results are given for 17-β-Estradiol?
Answer: HIV viral infectivity (RT activity) relative to control cells infected in the absence of estrogen ([1]; 3 days and 5 days post infection): approximately 4 times; RT Activity ([1]; Day 0 (Infection)): 0.68 cpm × 10^2/10 μl; RT Activity ([1]; Day 3 (Post Infection)): 72.42 cpm × 10^2/10 μl; RT Activity ([1]; Day 5 (Post Infection)): 124.44 cpm × 10^2/10 μl; extracellular LAPase activity of estrogen stimulated cells ([2]; 100 nM, 24 hours, supernatants immunoprecipitated with anti-LAP-Protein G MAb 7B6): 7.7×10^−5 U/ml; estrogen concentration of maximum release of LAPase ([2]; breast carcinoma parental cells, 24 hours of incubation): 100 nM; concentration of maximum stimulation of LAPase release [3]: 10^−7 M; LAPase activity, 17-β-Estradiol Stimulation ([3]; [β-Estradiol] 10^−5 M): 10.8 U* × 10^−5/ml; LAPase activity, 17-β-Estradiol Stimulation ([3]; [β-Estradiol] 10^−6 M): 20.4 U* × 10^−5/ml; LAPase activity, 17-β-Estradiol Stimulation ([3]; [β-Estradiol] 10^−7 M): 148.6 U* × 10^−5/ml; LAPase activity, 17-β-Estradiol Stimulation ([3]; [β-Estradiol] 10^−8 M): 110.7 U* × 10^−5/ml; effect of estrogen incubation on LAPase activity in purified preparations of the enzyme [4]: no effect

Question: Which P24 [5] does the source give for `C#C[C@]1(O)CC[C@H]2[C@@H]3CC[C@H]4C[C@@H](O)CC[C@@H]4[C@H]3CC[C@@]21C` [3β,5α-tetrahydro Norethisterone] here?
Answer: The P24 was 0 nmol/mL.

Question: And the Cytopathicity ([6]; Day 5 post-infection)?
Answer: The Cytopathicity was 0 Syncytia/well.

Question: And the “Proviral Load” value ([6]; Day 5 post-infection)?
Answer: The value was 2 copies.

Question: For `C[C@]12CCC(=O)C(O)=C1CC[C@@H]1[C@@H]2CC[C@]2(C)C(=O)CC[C@@H]12` [4-hydroxyandrostenedione], which P24 [5] is on record?
Answer: The P24 was 0.02 ± .001 nmol/mL.

Question: And the Cytopathicity ([6]; Day 5 post-infection)?
Answer: Its Cytopathicity is 4.0 ± 0.4 Syncytia/well.

Question: What about the “Proviral Load” value ([6]; Day 5 post-infection) of the same molecule?
Answer: Its value is 12 copies.

Question: With `CC(C)C[C@H](NC(=O)[C@@H](O)[C@H](N)Cc1ccccc1)C(=O)O` [Bestatin] as the molecule, how does the “es-LAPase reaction rate versus control es-LAPase (FIG. 3)” value [7] read?
Answer: Its value is “clearly inhibits”.

Question: What about the Vmax [7, 9] of the same molecule?
Answer: The Vmax was 34.0 ± 3.9 10^−6 M/min.

Question: What about the “mode of es-LAPase inhibition” value [7] of the same molecule?
Answer: Its value is “competitive”.

Question: What about the HIV-1 proviral copies ([6]; Day 0 post-infection, 120 μg/ml) of the same molecule?
Answer: The HIV-1 proviral copies was 0 copies.

Question: And the HIV-1 proviral copies ([6]; Day 3 post-infection, 120 μg/ml)?
Answer: The HIV-1 proviral copies was 7 ± 2 copies.

Question: And the HIV-1 proviral copies ([6]; Day 5 post-infection, 120 μg/ml)?
Answer: The HIV-1 proviral copies was 29 ± 3 copies.

Question: What about the HIV-1 proviral copies ([6]; Day 7 post-infection, 120 μg/ml) of the same molecule?
Answer: The HIV-1 proviral copies was 457 ± 12 copies.

Question: With `CC/C(=C(/c1ccc(OCCN(C)C)cc1)c1cccc(O)c1)c1ccccc1` [Droloxifene] as the molecule, how does the P24 [5] read?
Answer: The P24 was 0.04 ± .003 nmol/mL.

Question: And the Cytopathicity ([6]; Day 5 post-infection)?
Answer: Its Cytopathicity is 5.2 ± 0.6 Syncytia/well.

Question: What about the “Proviral Load” value ([6]; Day 5 post-infection) of the same molecule?
Answer: The value was 14 copies.

Question: Which results are given for `N[C@@H](CCC(=O)N[C@@H](CS)C(=O)NCC(=O)O)C(=O)O` [Glutathione]?
Answer: es-LAPase reaction rate versus control es-LAPase (FIG. 3) [7]: significant slower rates; Vmax [7, 9]: 17.2 ± 1.5 10^−6 M/min; mode of es-LAPase inhibition [7]: noncompetitive

Question: Which P24 [5] does the source give for `CC/C(=C(\c1ccc(I)cc1)c1ccc(OCCN2CCCC2)cc1)c1ccccc1` [Idoxifene] here?
Answer: Its P24 is 0 nmol/mL.

Question: What about the Cytopathicity ([6]; Day 5 post-infection) of the same molecule?
Answer: Its Cytopathicity is 0 Syncytia/well.

Question: And the “Proviral Load” value ([6]; Day 5 post-infection)?
Answer: Its value is 0 copies.

Question: Which P24 [5] does the source give for `O=C(c1ccc(OCCN2CCCCC2)cc1)c1c(-c2ccc(O)cc2)sc2cc(O)ccc12` [Raloxifene] here?
Answer: Its P24 is 0.01 ± .002 nmol/mL.

Question: What about the Cytopathicity ([6]; Day 5 post-infection) of the same molecule?
Answer: Its Cytopathicity is 3.3 ± 0.1 Syncytia/well.

Question: What about the “Proviral Load” value ([6]; Day 5 post-infection) of the same molecule?
Answer: Its value is 8 copies.

Question: For `CC/C(=C(\c1ccccc1)c1ccc(OCCN(C)C)cc1)c1ccccc1` [Tamoxifen], which P24 [5] is on record?
Answer: The P24 was 0 nmol/mL.

Question: What about the “inhibition of HIV infection” value [8] of the same molecule?
Answer: The value was “incomplete inhibition”.

Question: And the Cytopathicity ([6]; Day 5 post-infection)?
Answer: Its Cytopathicity is 0 Syncytia/well.

Question: And the “Proviral Load” value ([6]; Day 5 post-infection)?
Answer: The value was 0 copies.

B1: Thioredoxin: Human Thioredoxin purified from CD4+ T MP6 cells; uncompetitive inhibitor of es-LAPase; also linked to EDC/DADPA matrix (protein, UniProt P10599 2-105, looked up)
Thioredoxin: VKQIESKTAFQEALDAAGDKLVVVDFSATWCGPCKMIKPFFHSLSEKYSNVIFLEVDVDDCQDVASECEVKCMPTFQFFKKGQKVGEFSGANKEKLEATINELV
modifications: linked to EDC/DADPA matrix
Question: For B1, which “es-LAPase reaction rate versus control es-LAPase (FIG. 3)” value [7] is on record?
Answer: Its value is “significant slower rates”.

Question: And the Km ([7]; es-LAPase with 17 μM inhibitor)?
Answer: The Km was 23.4 ± 0.6 µM.

Question: And the Vmax ([7]; es-LAPase with 17 μM inhibitor)?
Answer: Its Vmax is 5.31 ± 0.02 10^−6 M/min.

Question: And the “mode of es-LAPase inhibition” value [7]?
Answer: The value was “uncompetitive”.

Question: What about the HIV-1 proviral copies ([6]; Day 0 post-infection, matrix-bound, 40 ng/5 ml) of the same molecule?
Answer: Its HIV-1 proviral copies is 0 copies.

Question: What about the HIV-1 proviral copies ([6]; Day 3 post-infection, matrix-bound, 40 ng/5 ml) of the same molecule?
Answer: The HIV-1 proviral copies was 4 ± 1 copies.

Question: And the HIV-1 proviral copies ([6]; Day 5 post-infection, matrix-bound, 40 ng/5 ml)?
Answer: The HIV-1 proviral copies was 12 ± 3 copies.

Question: What about the HIV-1 proviral copies ([6]; Day 7 post-infection, matrix-bound, 40 ng/5 ml) of the same molecule?
Answer: Its HIV-1 proviral copies is 122 ± 8 copies.

Question: And the “number of HIV-1 proviral copies compared to control cells (in words)” value ([6]; matrix-bound, incubated with HUT 78 cells 7 hours prior to infection)?
Answer: The value was “significantly reduces”.
